Measurements published in patent publication US20240245670A1, “DOSING REGIMEN AND PHARMACEUTICAL COMBINATION COMPRISING 3-(1-OXOISOINDOLIN-2-YL)PIPERIDINE-2,6-DIONE DERIVATIVES” (Novartis AG, priority 2018, published 2024).

Assays:
IKZF2 = molecular target: T1, IKZF2 (Oryctolagus cuniculus, UniProt A0A5F9CPW0); assay: IKZF2 degradation in primary PBMCs in vitro (FIG. 3); assay type: cell-based; conditions: primary rabbit PBMCs; concentrations up to 10 μM
T1 construct: endogenous in cells; host or cells: primary rabbit PBMCs
T1 sequence (A0A5F9CPW0 1-526): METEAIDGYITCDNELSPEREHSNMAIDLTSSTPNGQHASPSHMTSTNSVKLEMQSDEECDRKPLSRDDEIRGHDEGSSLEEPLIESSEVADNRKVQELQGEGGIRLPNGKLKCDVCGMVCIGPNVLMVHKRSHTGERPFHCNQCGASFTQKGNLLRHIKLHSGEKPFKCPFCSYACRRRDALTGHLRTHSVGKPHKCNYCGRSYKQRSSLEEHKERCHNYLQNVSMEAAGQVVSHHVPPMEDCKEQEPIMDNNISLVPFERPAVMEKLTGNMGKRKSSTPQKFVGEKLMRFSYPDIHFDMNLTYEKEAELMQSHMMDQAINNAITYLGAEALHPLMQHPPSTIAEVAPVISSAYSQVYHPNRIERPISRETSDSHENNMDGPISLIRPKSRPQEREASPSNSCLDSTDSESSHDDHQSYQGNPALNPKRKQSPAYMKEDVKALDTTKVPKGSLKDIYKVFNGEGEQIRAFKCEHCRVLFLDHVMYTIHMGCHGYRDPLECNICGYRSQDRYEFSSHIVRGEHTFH
Protocol: FIG. 3. is a bar graph showing the degradation of IKZF2 in primary PBMCs obtained from rabbit, dog, pig, cynomolgus monkey and human, and in primary splenocytes of mouse and rat and treated with Compound I-57.
I-57 mediated degradation of IKZF2 was assessed in primary PBMCs obtained from rabbit, dog, pig, cynomolgus monkey, and human, and in primary splenocytes of mouse and rat. […] Species-specificity due to species specific alteration CRBN primary structure have previously been described with other compounds known to interact with the CRBN ubiquitin ligase complex to elicit protein specific degradation (Krönke et al, 2015).

primary human Tregs = assay: Suppressive potency of Treg cells expanded in vitro in the presence of compound (FIG. 2C); assay type: cell-based
From the text: FIG. 2C is a bar graph showing the suppressive potency of Treg cells expanded in the presence of Compound I-57.
Although the specific transcriptional targets of IKZF2 remain to be defined, IKZF2 binds to and represses transcription from the IL-2 promoter region (Baine 2013). […] Finally, an in vitro assay recapitulating hallmarks of T cell dysfunction/exhaustion, by sequential TCR stimulation of isolated primary human T cells, was used to test the hypothesis that […] would rescue the exhausted phenotype and enhance Teff cell activity. […] In addition to IKZF1, other known cereblon substrates including translation termination factor G1 to S phase transition 1 (GSPT1) are not degraded by I-57 (FIG. 1).

TMEM97 = molecular target: T2, TMEM97 (Homo sapiens, UniProt Q5BJF2); assay: Whole cell proteomic analysis in 293T cells; assay type: cell-based; conditions: nearly 8000 proteins identified
T2 construct: endogenous in cells; host or cells: 293T
T2 sequence (Q5BJF2 whole entry): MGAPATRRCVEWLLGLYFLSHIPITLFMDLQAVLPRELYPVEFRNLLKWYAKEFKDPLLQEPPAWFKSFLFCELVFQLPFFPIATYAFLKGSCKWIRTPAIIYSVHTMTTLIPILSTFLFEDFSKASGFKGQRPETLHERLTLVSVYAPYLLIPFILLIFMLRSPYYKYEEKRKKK
Protocol: Other potential degradation targets of I-57 were evaluated in 293T cells using whole cell proteomic analysis. […] Subsequent analyses have confirmed that FIZ1 is degraded by about 50% at a 10 μM concentration of I-57 ([I-57 Investigator's Brochure]). […] FIZ1 is expressed in the neural retina where it transcriptionally represses the differentiation of photoreceptors. FIZ1 is also expressed in non-ocular tissues with unknown function.

[1] = molecular target: T3, IKZF2 expression in human CD4+FOXP3+ regulatory T cells (Homo sapiens, UniProt Q96SW2+Q9UKS7); assay: PD in MDA-MB231 xenograft hPBMC AdT model: IKZF2 in Tregs by flow cytometry (FIG. 7); assay type: in vivo
T3 construct: endogenous in cells; host or cells: adoptively transferred human PBMCs (Tregs, tumor-infiltrating lymphocytes) in NSG mice
T3 sequence (Q9UKS7 whole entry): as the sequence (A0A5F9CPW0 1-526) above, with D68E, V234M, M266I, S373A, N423H, V449A counted along it
T3 sequence (Q96SW2 whole entry): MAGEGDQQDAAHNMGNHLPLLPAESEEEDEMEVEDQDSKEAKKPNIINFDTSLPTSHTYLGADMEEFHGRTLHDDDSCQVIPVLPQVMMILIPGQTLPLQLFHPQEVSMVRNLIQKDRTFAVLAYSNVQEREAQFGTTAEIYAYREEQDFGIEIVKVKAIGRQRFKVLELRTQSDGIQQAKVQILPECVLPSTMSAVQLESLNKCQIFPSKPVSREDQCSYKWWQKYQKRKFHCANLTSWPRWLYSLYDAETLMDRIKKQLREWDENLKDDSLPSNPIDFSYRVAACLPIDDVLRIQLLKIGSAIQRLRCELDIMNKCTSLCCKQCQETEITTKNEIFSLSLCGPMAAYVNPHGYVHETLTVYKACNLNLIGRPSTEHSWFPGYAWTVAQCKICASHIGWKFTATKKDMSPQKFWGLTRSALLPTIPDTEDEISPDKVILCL
T3 sequence (Q16531 whole entry partner): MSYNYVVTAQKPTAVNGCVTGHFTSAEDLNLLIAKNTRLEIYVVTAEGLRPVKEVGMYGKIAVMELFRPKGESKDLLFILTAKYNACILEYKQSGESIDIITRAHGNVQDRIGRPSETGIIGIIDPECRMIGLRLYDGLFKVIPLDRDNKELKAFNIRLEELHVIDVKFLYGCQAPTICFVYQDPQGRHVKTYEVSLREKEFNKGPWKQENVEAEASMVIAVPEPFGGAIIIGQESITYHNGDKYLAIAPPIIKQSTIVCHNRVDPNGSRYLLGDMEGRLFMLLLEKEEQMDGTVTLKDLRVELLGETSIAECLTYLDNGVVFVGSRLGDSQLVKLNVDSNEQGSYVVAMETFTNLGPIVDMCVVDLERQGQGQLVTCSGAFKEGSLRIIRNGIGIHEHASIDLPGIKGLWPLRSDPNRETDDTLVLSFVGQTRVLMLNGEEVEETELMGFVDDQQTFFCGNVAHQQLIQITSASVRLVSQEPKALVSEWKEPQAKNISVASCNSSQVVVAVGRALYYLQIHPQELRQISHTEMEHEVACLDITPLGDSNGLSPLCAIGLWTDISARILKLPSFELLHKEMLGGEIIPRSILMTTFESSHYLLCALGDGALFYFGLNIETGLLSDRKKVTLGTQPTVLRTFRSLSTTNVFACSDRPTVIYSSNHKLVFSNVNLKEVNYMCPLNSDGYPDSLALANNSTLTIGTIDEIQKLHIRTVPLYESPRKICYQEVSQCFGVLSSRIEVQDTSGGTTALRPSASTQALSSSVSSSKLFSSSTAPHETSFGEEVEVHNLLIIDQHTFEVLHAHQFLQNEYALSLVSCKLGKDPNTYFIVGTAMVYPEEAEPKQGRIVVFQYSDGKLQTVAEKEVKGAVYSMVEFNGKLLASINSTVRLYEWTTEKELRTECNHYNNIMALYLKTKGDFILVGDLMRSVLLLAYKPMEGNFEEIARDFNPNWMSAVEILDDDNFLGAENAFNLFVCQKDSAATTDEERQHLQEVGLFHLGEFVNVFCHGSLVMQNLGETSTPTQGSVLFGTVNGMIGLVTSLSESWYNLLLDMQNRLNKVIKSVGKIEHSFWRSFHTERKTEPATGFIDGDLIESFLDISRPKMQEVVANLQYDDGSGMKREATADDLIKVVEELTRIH
Protocol: FIG. 6 is a pictorial representation of the multi-dose PK/PD study design in the human PBMC adoptive transfer mouse model harboring MDA-MB231 xenografts. Fourteen consecutive daily doses of Compound I-57 was administered at 0.3 mg/kg, 1 mg/kg, 3 mg/kg or 30 mg/kg.
FIG. 7 is a graph showing the change in the IKZF2 expression in human CD4+FOXP3+ regulatory T cells isolated from MDA-MB231 tumor xenografts (Tumor) or blood (Periphery) following 14 daily oral doses of 0.3, 1, 3 and 30 mg/kg Compound I-57 administered to the hPBMC AdT model.
The PK/PD relationship of I-57 was examined in the hPBMC AdT model system. Human PBMCs were adoptively transferred into female NSG mice harboring established MDA-MB231 xenografts (FIG. 6). This model was selected based on the observation that IKZF2 positive Tregs (CD4+FOXP3+) were readily identifiable in peripheral blood and infiltrated in the tumor xenografts.
The impact of I-57 on IKZF2 protein expression in human Tregs in the periphery and infiltrated in MDA-MB231 xenografts was assessed via flow cytometry at multiple time points after the last I-57 dose. […] Maximum effects were generally observed 4-16 h post dose. At a given dose level, the magnitude and duration of IKZF2 reduction in Tregs was generally consistent across tissues (tumor, spleen and blood).
Based on the data from this hPBMC AdT mouse model, unbound I-57 (73% percent plasma binding in the mouse) exposures (AUCinf) of 7, 30, 157 and 3474 ng*h/mL are required to achieve the reduction of IKZF2 positivity (via flow cytometry) in tumor Tregs by 31, 43, 56, and 75%, respectively. The relationship between the magnitude and duration of I-57-mediated IKZF2 degradation and subsequent modulation of therapeutically relevant downstream biology is not yet well understood.

[2] = In vivo non-clinical PK / high dose PK; conditions: mouse; between 3 mg/kg and 100 mg/kg
Protocol: The in vivo non-clinical PK profile of I-57 was investigated in mouse, rat, dog and cynomolgus monkey using I-57 free base. […] After p.o. administration, the absorption of I-57 was rapid with peak blood concentration (Tmax) occurring between 1 and 4 hours. […] In high dose PK and toxicology studies with I-57 the exposures in mouse, rat and monkey increased with dose.
The binding to plasma protein of I-57 in vitro was moderate in all species, with an observed difference between rodents (73% in mouse, 76% in rat) and non-rodents (52% in dog and monkey, 54% in human). Blood-to-plasma ratios were in the range of 0.7-1.8 (human 1.1-1.3). […] Based on results with non-radiolabeled I-57 in the dog, a significant amount of unchanged I-57 was renally eliminated (˜20% of dose).

For `O=C1CCC(N2Cc3cc(C4CCN(Cc5ccccc5)CC4)ccc3C2=O)C(=O)N1` (stereo not shown) [Compound I-57, 3-(5-(1-benzylpiperidin-4-yl)-1-oxoisoindolin-2-yl)piperidine-2,6-dione], which “degradation of IKZF2” value (IKZF2) is on record?
Its value is “Degradation was observed”.

And the “proportion of IKZF2-expressing cells” value (primary human Tregs)?
Its value is “remained unchanged”.

And the “TMEM97 degradation (proteomics)” value (TMEM97)?
The value was “degraded”.

And the “time of maximum effects” value ([1]; post dose (after last dose))?
Its value is 4 to 16 h.

What about the “IKZF2 degradation (reduction of percentage of IKZF2 positive Tregs)” value ([1]; tumor and peripheral blood, 14 daily oral doses of 0.3, 1, 3 and 30 mg/kg) of the same compound?
The value was “robust dose and exposure-dependent IKZF2 degradation”.

And the “reduction of IKZF2 positivity in tumor Tregs (flow cytometry)” value (from here on “reduction of IKZF2 positivity”) ([1]; unbound AUCinf 7 ng*h/mL)?
Its value is 31%.

And the “reduction of IKZF2 positivity” value ([1]; unbound AUCinf 30 ng*h/mL)?
Its value is 43%.

What about the “reduction of IKZF2 positivity” value ([1]; unbound AUCinf 157 ng*h/mL) of the same compound?
Its value is 56%.

What about the “reduction of IKZF2 positivity” value ([1]; unbound AUCinf 3474 ng*h/mL) of the same compound?
The value was 75%.

What about the “increase in AUC with dose” value [2] of the same compound?
The value was “roughly dose proportional”.
